{"source": "patent JP2015013808A", "about": "“G2/m期停止及び細胞死を誘導するベンゾヒドラジド誘導体” (Kyushu University NUC, priority 2011, dated 2013)", "key": {"[1]": {"test_system": "human cancer cells [ヒトがん細胞]", "test": "Growth inhibition / cytotoxicity in cancer cell lines (summary over lines)", "assay_type": "cell-based", "conditions": "for cancer cell selectivity of growth inhibition and cytotoxicity (in words): cancer cells versus normal fibroblasts; for anticancer activity / inhibitory effect on cancer cell lines (in words): 48 h, MTS"}, "[2]": {"test_system": "HeLa cells (cervical cancer-derived cell line) [HeLa細胞(子宮頸癌由株細胞株)]", "test": "MTS growth inhibition assay, HeLa", "assay_type": "cell-based, human", "conditions": "48 h"}, "HFF2/T cells [HFF2/T細胞]": {"test_system": "HFF2/T cells [HFF2/T細胞]", "test": "FACS cell cycle analysis, HFF2/T normal fibroblasts", "assay_type": "cell-based, human", "conditions": "10 μM, 24 h"}, "[3]": {"test_system": "human cancer cells [ヒトがん細胞]", "test": "FACS cell cycle analysis (summary, cell line not specified)", "assay_type": "cell-based"}, "[4]": {"test_system": "HFF2/T cells (normal human fibroblast line immortalized by introduction of human telomerase) [HFF2/T細胞(ヒトテロメラーゼの導入により不死化した正常ヒト線維芽細胞株)]", "test": "MTS growth inhibition assay, HFF2/T normal fibroblasts", "assay_type": "cell-based", "conditions": "48 h"}, "[5]": {"test_system": "H1299 cells (lung cancer-derived cell line) [H1299細胞(肺がん由来細胞株)]", "test": "MTS growth inhibition assay, H1299", "assay_type": "cell-based, human", "conditions": "48 h"}, "T98G cells [T98G細胞]": {"test_system": "T98G cells [T98G細胞]", "test": "FACS cell cycle analysis, T98G", "assay_type": "cell-based, human", "conditions": "10 μM, 24 h"}, "[6]": {"test_system": "T98G cells (glioblastoma-derived cell line) [T98G細胞(グリオブラストーマ由来細胞株)]", "test": "MTS growth inhibition assay, T98G", "assay_type": "cell-based, human", "conditions": "48 h"}, "[7]": {"target": "T1, Cdt1-geminin binding [Cdt1-geminin結合] (Homo sapiens, UniProt O75496+Q9H211)", "T1 construct": "made in house", "T1 sequence (Q9H211 1-546)": "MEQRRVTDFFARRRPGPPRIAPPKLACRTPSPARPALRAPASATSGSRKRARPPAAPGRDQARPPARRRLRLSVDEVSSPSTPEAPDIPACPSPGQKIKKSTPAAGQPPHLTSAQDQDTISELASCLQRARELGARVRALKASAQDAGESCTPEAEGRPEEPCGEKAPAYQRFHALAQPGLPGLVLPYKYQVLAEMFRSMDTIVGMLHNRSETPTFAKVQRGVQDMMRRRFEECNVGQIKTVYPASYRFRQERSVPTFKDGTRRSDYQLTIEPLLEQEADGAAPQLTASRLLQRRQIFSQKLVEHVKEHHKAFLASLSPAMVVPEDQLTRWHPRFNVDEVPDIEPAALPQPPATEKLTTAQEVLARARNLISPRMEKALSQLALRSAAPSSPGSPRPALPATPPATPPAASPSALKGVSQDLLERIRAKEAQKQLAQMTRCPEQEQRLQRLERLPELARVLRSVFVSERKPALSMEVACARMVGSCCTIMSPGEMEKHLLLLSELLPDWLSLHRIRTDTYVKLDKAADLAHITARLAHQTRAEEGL", "T1 sequence (O75496 1-209)": "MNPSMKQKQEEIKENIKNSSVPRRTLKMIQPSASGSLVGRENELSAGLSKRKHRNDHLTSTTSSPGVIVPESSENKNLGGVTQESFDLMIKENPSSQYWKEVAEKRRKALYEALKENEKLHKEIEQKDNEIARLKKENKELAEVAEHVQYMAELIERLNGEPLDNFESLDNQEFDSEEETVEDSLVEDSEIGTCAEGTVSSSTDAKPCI", "test": "In vitro Cdt1-geminin binding inhibition assay (modified ELISA)"}}, "note": "Like-named read-outs stand apart in the source and are kept apart here."}
{"compound": "NNC(=O)c1ccccc1I", "note": "[Y-R2, 2-iodobenzohydrazide, reference compound]", "values": [{"measurement": "cancer cell selectivity of growth inhibition and cytotoxicity (in words)", "setting": "[1]", "value": "そのような効果は認められなかった"}]}
{"compound": "CCn1c2ccccc2c2cc(/C=N/NC(=O)c3cccc(I)c3)ccc21", "note": "[NP-13, (E)-N'-((9-Ethyl-9H-carbazol-3-yl)methylene)-3-iodobenzohydrazide]", "values": [{"measurement": "anticancer activity / inhibitory effect on cancer cell lines (in words)", "setting": "[1]", "value": "抗がん活性を失ってしまう"}, {"measurement": "anticancer activity / inhibitory effect on cancer cell lines (in words)", "setting": "[1]; listed as 3-iodo体", "value": "抗がん活性が比較的低く"}]}
{"compound": "CCn1c2ccccc2c2cc(/C=N/NC(=O)c3ccccc3I)ccc21", "note": "[NP-10, (E)-N'-((9-Ethyl-9H-carbazol-3-yl)methylene)-2-iodobenzohydrazide]", "values": [{"measurement": "50% growth inhibitory concentration", "setting": "[2]", "value": "数"}, {"measurement": "effect on cell cycle progression", "setting": "HFF2/T cells [HFF2/T細胞]", "value": "細胞周期進行に影響を与えなかった"}, {"measurement": "effect on cell cycle progression", "setting": "HFF2/T cells [HFF2/T細胞]; listed as 2-iodo体", "value": "正常細胞の細胞周期の進行に影響を与えず"}, {"measurement": "cancer cell selectivity of growth inhibition and cytotoxicity (in words)", "setting": "[1]", "value": "がん細胞選択的に細胞増殖を阻害し、細胞毒性を発揮した"}, {"measurement": "cancer cell selectivity of growth inhibition and cytotoxicity (in words)", "setting": "[1]; listed as 2-iodo体", "value": "がん細胞選択的に細胞増殖を阻害し、細胞毒性を発揮する"}, {"measurement": "cancer cell selectivity of growth inhibition and cytotoxicity (in words)", "setting": "[1]; listed as 2-ヨード体", "value": "がん細胞に対して選択的に毒性を発揮する"}, {"measurement": "concentration that inhibits growth of human cancer cells", "setting": "[1]; human cancer cells, lines not specified", "value": "数"}, {"measurement": "cell death", "setting": "[1]; human cancer cells, several μM", "value": "細胞死"}, {"measurement": "cell cycle phase inhibited", "setting": "[3]", "value": "主にM期の進行阻害"}, {"measurement": "cell cycle phase inhibited", "setting": "[3]; listed as 2-iodo体", "value": "主にM期の進行阻害"}, {"measurement": "concentration needed for 50% growth inhibition of HFF2/T relative to HeLa", "setting": "[4]; HFF2/T versus HeLa", "value": "~10", "unit": "fold"}, {"measurement": "growth inhibition / toxicity toward normal fibroblasts or normal cells (in words)", "setting": "[4]", "value": "正常線維芽細胞に対する増殖抑制効果は低い"}, {"measurement": "50% growth inhibitory concentration", "setting": "[5]", "value": "数"}, {"measurement": "effect on cell cycle", "setting": "T98G cells [T98G細胞]", "value": "主にS期で停止"}, {"measurement": "50% growth inhibitory concentration", "setting": "[6]", "value": "数"}, {"measurement": "Cdt1-geminin binding inhibitory activity (in words)", "setting": "[7]", "value": "Cdt1-geminin結合の阻害活性は示さない"}]}
{"compound": "CCn1c2ccccc2c2cc(/C=N/NC(=O)c3ccccc3C)ccc21", "note": "[HND-007, (E)-N'-((9-Ethyl-9H-carbazol-3-yl)methylene)-2-methylbenzohydrazide]", "values": [{"measurement": "anticancer activity / inhibitory effect on cancer cell lines (in words)", "setting": "[1]; listed as 2- methyl体", "value": "がん細胞株に対する抑制効果を高める"}, {"measurement": "anticancer activity / inhibitory effect on cancer cell lines (in words)", "setting": "[1]; listed as (E)-N'-((9-エチル-9H-カルバゾール-3-イル)メチレン)-2-メチルベンゾヒドラジド", "value": "殺細胞性が高い"}, {"measurement": "cancer cell selectivity of growth inhibition and cytotoxicity (in words)", "setting": "[1]", "value": "選択性は低く"}, {"measurement": "cell cycle phase inhibited", "setting": "[3]", "value": "主にM期の進行阻害を行っているものと予想される"}, {"measurement": "growth inhibition / toxicity toward normal fibroblasts or normal cells (in words)", "setting": "[4]", "value": "正常線維芽細胞に対しても高い毒性を示す"}, {"measurement": "growth inhibition / toxicity toward normal fibroblasts or normal cells (in words)", "setting": "[4]; listed as 2- methyl体", "value": "正常細胞に対しても高い毒性を示す場合がある"}]}
{"compound": "CCn1c2ccccc2c2cc(C=O)ccc21", "note": "[Y-R1, N-ethylcarbazole-3-carboxaldehyde, reference compound]", "values": [{"measurement": "cancer cell selectivity of growth inhibition and cytotoxicity (in words)", "setting": "[1]", "value": "そのような効果は認められなかった"}]}
{"compound": "CCn1c2ccccc2c2cc(/C=N/NC(=O)c3ccc(O)cc3O)ccc21", "note": "[(E)-N'-((9-エチル-9H-カルバゾール-3-イル)メチレン)-2,4-ジヒドロキシベンゾヒドラジド]", "values": [{"measurement": "toxicity toward certain cancer cell lines (in words)", "setting": "[1]; certain cancer cell lines, not specified", "value": "ある種のがん細胞株に対する毒性が低下する"}]}
{"compound": "CCn1c2ccccc2c2cc(/C=N/NC(=O)c3ccc(I)cc3)ccc21", "note": "[NP-14, (E)-N'-((9-Ethyl-9H-carbazol-3-yl)methylene)-4-iodobenzohydrazide]", "values": [{"measurement": "anticancer activity / inhibitory effect on cancer cell lines (in words)", "setting": "[1]", "value": "NP-10と同等あるいはより高い抗がん活性を示す"}, {"measurement": "anticancer activity / inhibitory effect on cancer cell lines (in words)", "setting": "[1]; listed as 4-iodo体", "value": "2-iodo体と同等、あるいはより高い抗がん活性を示す"}, {"measurement": "anticancer activity / inhibitory effect on cancer cell lines (in words)", "setting": "[1]; listed as 4-ヨード体", "value": "抗がん活性も示した"}, {"measurement": "cancer cell selectivity of growth inhibition and cytotoxicity (in words)", "setting": "[1]", "value": "がん細胞選択性は低下していた"}, {"measurement": "growth inhibition / toxicity toward normal fibroblasts or normal cells (in words)", "setting": "[4]", "value": "正常線維芽細胞に対しても高い毒性を示す"}, {"measurement": "growth inhibition / toxicity toward normal fibroblasts or normal cells (in words)", "setting": "[4]; listed as 4-iodo体", "value": "正常線維芽細胞に対しても高い毒性を示しうる"}, {"measurement": "Cdt1-geminin binding inhibitory activity (in words)", "setting": "[7]; listed as 4-iodo体", "value": "Cdt1-gemininの試験管内での結合を阻害しうる"}, {"measurement": "Cdt1-geminin binding inhibitory activity (in words)", "setting": "[7]; listed as 4-ヨード体", "value": "Cdt1-geminin結合阻害活性を持ち"}, {"measurement": "IC50", "setting": "[7]; read-out: 50% binding inhibitory concentration, Cdt1-geminin", "value": "~40", "unit": "µM"}]}
